Each compound was assayed against Transcription factor Jun (Homo sapiens, UniProt P05412) (assay: Inhibition of AP-1-mediated transcriptional activation in human Jurkat cells by luciferase reporter gene assay).
Transcription factor Jun, sequence (P05412 whole entry): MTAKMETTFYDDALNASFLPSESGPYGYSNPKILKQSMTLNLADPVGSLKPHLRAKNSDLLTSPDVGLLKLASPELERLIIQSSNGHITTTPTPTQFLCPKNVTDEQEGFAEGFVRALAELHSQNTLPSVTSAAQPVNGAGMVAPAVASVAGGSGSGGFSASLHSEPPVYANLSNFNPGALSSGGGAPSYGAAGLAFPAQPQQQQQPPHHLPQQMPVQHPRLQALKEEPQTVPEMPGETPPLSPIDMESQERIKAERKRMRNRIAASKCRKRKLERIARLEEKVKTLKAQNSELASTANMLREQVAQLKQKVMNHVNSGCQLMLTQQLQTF

| IC50 | Compound |
| --- | --- |
| > 10 µM | O=C(Nc1cc(C(F)(F)F)cc(C(F)(F)F)c1)c1cnc(C(F)(F)F)nc1C(F)(F)F [2,4-Bis-trifluoromethyl-pyrimidine-5-carboxylic acid (3,5-bis-trifluoromethyl-phenyl)-amide] |
| > 10 µM | N#Cc1ncc(C(=O)Nc2cc(C(F)(F)F)cc(C(F)(F)F)c2)c(C(F)(F)F)n1 [2-Cyano-4-trifluoromethyl-pyrimidine-5-carboxylic acid (3,5-bis-trifluoromethyl-phenyl)-amide] |
| > 30 µM | O=C(Nc1cc(C(F)(F)F)cc(C(F)(F)F)c1)c1ccc(Cl)cc1C(F)(F)F [N-(3,5-Bis-trifluoromethyl-phenyl)-4-chloro-2-trifluoromethyl-benzamide] |

— BindingDB's records for doi:10.1021/jm5004733 (University of Texas Medical Branch, 2014)
